Measured values published in patent US12364755B2, “Method for obtaining globally activated monocytes” (Transimmune AG, priority 2014, dated 2025).
No end group written: not given here.

Experiments:
Format in all cases: cell-based, human
platelets [1] = assay: Platelet adhesion to fibrinogen-coated plates in flow after peptide pre-treatment of platelets; conditions: platelets (PRP) pre-incubated with peptide 2 mM, 20 minutes
Protocol: (§1) Platelet adhesion experiments were performed using the Vena8 flow chamber described above. Fibrinogen and fibronectin (Sigma) were dissolved in PBS to a final concentration of 200 mcg/ml. Channels of the Vena8 chips were incubated at room temperature in a humidified chamber for 2 hours with the protein solution, autologous plasma, or PBS alone. The channels were washed with 5x the volume RPMI. Platelet-rich-plasma was then perfused through the protein-coated channel at the indicated shear-stress, held constant. For each channel, still images were acquired exactly 90 seconds into the experiment at 4 pre-defined low power fields located along the flow path (fields were centered at 2500, 7500, 12500, and 17500 microns from the start point of infusion).
(§2) Some experiments involved pre-treating platelet-rich-plasma with protein fragments prior to infusion through the channels. Small RGD peptides, containing the amino-acid sequence Arg-Gly-Asp-Ser; DRG peptides, contain the amino-acid sequence Ser-Asp-Gly-Arg; or fragment 400-411 of fibrinogen, containing the amino-acid sequence His-His-Leu-Gly-Gly-Ala-Lys-Gln-Ala-Gly-Asp-Val, were incubated at a concentration of 2 mM with PRP for 20 minutes at room temperature. The PRP was then perfused through the channels as previously described.

platelets [2] = assay: Platelet adhesion to fibronectin-coated plates in flow after peptide pre-treatment of platelets; conditions: platelets (PRP) pre-incubated with peptide 2 mM, 20 minutes
Protocol: as §1, §2

monocytes = assay: Static co-culture of monocytes with platelets (DC differentiation); conditions: platelets activated with thrombin (2 units) vs not activated; 18 hours static culture
Protocol: When overnight culture was required, cells were centrifuged and resuspended in RPMI-1640 medium (GIBCO), supplemented with 15% AB serum (Gemini Bio-Products) to a final concentration of 5×10^6 cells/ml. Cells were cultured overnight for 18 hours in 12-well polystyrene tissue culture plates (2 ml per well) at 37° C. in 5% CO2.
Monoclonal antibodies for immunophenotyping included CD14 (LPS receptor; monocytes), CD11c (integrin subunit; monocytes and DC), HLA-DR (class II MHC molecule), CD83 (DC marker), CD62p (P-selectin; activated platelets), and CD61 (integrin subunit; platelets). Antibodies were obtained from Beckman Coulter (CD14, CD11c, HLADR, CD83) or Sigma (CD62p, CD61) and used at their pre-determined optimal dilutions. Background staining was established with appropriate isotype controls, and immunofluorescence was analyzed using a FC500 flow cytometer (Beckman Coulter). Two-color membrane staining was performed by adding the pre-determined optimal concentrations of both antibodies directly conjugated to FITC or PE and incubating for 20 min at 4° C., followed by washing to remove unbound antibodies. Combined membrane and cytoplasmic staining was performed following manufacturer's instructions for cell fixation and permeabilization (Intraprep kit, Beckman Coulter). […]

GILZ [3] = assay: GILZ mRNA expression in CD11c+ MoDC (real-time PCR); conditions: for GILZ up-regulation, fold change relative to untreated MoDC cultured alone: 24 hr after co-culture/treatment (FIG. 13B)
Protocol: The tubes emitted UVA light ranging from 320 to 400 nm. The UVA irradiance (power, W/m^2) was measured using a photodiode. […] Non-adherent cells (purity: 66.0±4.5% CD3^+) removed during plastic adherence will now be generally referred to as lymphocytes. […] RNA yield and purity were assessed using a NanoDrop ND-1000 spectrophotometer. cDNA was obtained using the High Capacity cDNA Reverse Transcription Kit (Applied Biosystems) in a 96-well thcrmocycicr (MJ Research PTC-200). TaqMan real-time PCR was used to detect transcripts of GILZ, CD80, and CD86. Primers and probes were obtained as pre-designed and validated Taqman Gene Expression Assays (Applied Biosystems). SYBR green real-time PCR (Applied Biosystems) was used to detect transcripts of IL-12, IL-10, IL-6, TNF-alpha, and TGF-β. Primers were designed to span intron junctions using Primer3Plus. Primer melting curves were obtained to confirm a single product. HPRT-1 and GAPDH were used as reference genes. Samples were run in triplicate on a 7500 Real Time PCR System (Applied Biosystems). The delta-delta C(t) method was used to calculate the fold change.

CD11c+ MoDC = assay: Apoptosis of CD11c+ MoDC (Annexin-V/7-AAD); conditions: 24 hr
Protocol: Cultures were incubated with 8-MOP (Uvadex, 20 μg/mL) for 30 min in the dark, and then irradiated with a desktop UVA light box containing a series of 12 linear fluorescent tubes. The tubes emitted UVA light ranging from 320 to 400 nm. The UVA irradiance (power, W/m^2) was measured using a photodiode. Given a measured irradiance and the absorption properties of the various components of the system, it was possible to determine the time (sec) needed to expose the cells to deliver a given dose of UVA radiation (J/cm^2).
(§3) Monoclonal antibodies included HLA-DR, CD80, CD83, CD3, CD86, CD14, CD11c and GILZ. Antibodies were obtained from Beckman-Coulter and eBioscience and were used at their pre-determined optimal dilutions. Apoptosis was assessed using the Annexin-V Apoptosis Detection Kit (eBioscience), with Annexin-V recognizing phosphatidylserine (PS) on the surface of apoptotic cells. 7-AAD substituted for PI as the cell viability dye. Cells displaying an Annexin-V^+/7-AAD^− phenotype were classified as early apoptotic cells, and cells displaying an Annexin-V^+/7-AAD^+ phenotype were classified as late apoptotic cells. Dual membrane and intracytoplasmic staining was performed using the lntraPrep fix and permeabilization kit (Beckman-Coulter). Background staining was established with appropriate isotype and fluorescence minus one controls. Immunofluorescence was analyzed using a FACSCalibur L (BD Biosciences) within 2 hr of fixation with 2% paraformaldehyde. A minimum of 10,000 events were collected for each group.

lymphocytes [4] = assay: Apoptosis of lymphocytes (Annexin-V/7-AAD)
Protocol: (§4) Lymphocytes were treated with 8-MOP (100 ng/mL) and UVA (1 J/cm^2), washed with PBS, and co-cultured in complete media at 37° C. and 5% CO2 with either PUVA-treated or untreated-MoDC in a ratio of 5 or 10 lymphocytes to 1 MoDC. MoDC treated for 24 hr with 100 nM dexamethasone (Sigma) served as the positive control group. After 24 hr, cells were harvested and MoDC were re-purified.
as §3

lymphocytes [5] = assay: Apoptosis of ECP-processed lymphocytes after overnight incubation; conditions: UVA-activated 8-MOP
platelets [6] = assay: Plasma protein influence on platelet adhesion to plates; conditions: plates pre-coated with protein; wall shear stress 0.2 to 6.0 dyne/cm^2
Protocol: as §1

MoDC = assay: Cytokine quantification in culture supernatants after LPS stimulation; conditions: for IL-10 to IL-12p70 ratio: after LPS stimulation, untreated MoDC 6.7
Protocol: as §4, with “Non-adherent cells (purity: 66.0±4.5% CD3^+) removed during plastic adherence will now be generally referred to as lymphocytes. Lymphocytes” for “Lymphocytes”
(§5) Culture supernatants were analyzed in a multiplex format utilizing magnetic beads to IL-6, IL-8, IL-10, IL-12p70, TNF-a, RANTES, MCP-1, and MIP-1β (BioRad Laboratories). For siRNA experiments, supernatants were analyzed with enzyme-linked immunosorbent assay (ELISA) kits for IL-10 (R&D Systems) and IL-12p70 (Enzo Life Science). All samples and standards were run in duplicate and analyzed using the LUMINEX 200 (LUMINEX), or the BioTek EL800 (BioTek).

GILZ [7] = assay: siRNA-mediated knockdown of GILZ in MoDC; conditions: siRNA experiments, ELISA
Protocol: Silencer select pre-designed and validated GILZ siRNA (Invitrogen), with off-target prediction algorithms, was used to knockdown GILZ expression. Mo-DC were transfected using Lipofectamine RNAiMAX Reagent (Invitrogen). RNAi duplex and lipofectamine reagent were incubated together for 20 min, then added to MoDC cultures and incubated for 2 hr at 37° C. and 5% CO2. Transfected MoDC were treated in an identical fashion as described for the MoDC/lymphocyte co-cultures. MoDC were also transfected with scramble siRNA.
RNA was isolated from CD11c MoDC using QIAShredder columns (QIAGEN) and the RNeasy Mini Kit (QIAGEN) with on-column Dnase I treatment (QIAGEN). RNA yield and purity were assessed using a NanoDrop ND-1000 spectrophotometer. cDNA was obtained using the High Capacity cDNA Reverse Transcription Kit (Applied Biosystems) in a 96-well thcrmocycicr (MJ Research PTC-200). TaqMan real-time PCR was used to detect transcripts of GILZ, CD80, and CD86. Primers and probes were obtained as pre-designed and validated Taqman Gene Expression Assays (Applied Biosystems). SYBR green real-time PCR (Applied Biosystems) was used to detect transcripts of IL-12, IL-10, IL-6, TNF-alpha, and TGF-β. Primers were designed to span intron junctions using Primer3Plus. Primer melting curves were obtained to confirm a single product. HPRT-1 and GAPDH were used as reference genes. Samples were run in triplicate on a 7500 Real Time PCR System (Applied Biosystems). The delta-delta C(t) method was used to calculate the fold change.
as §5

[8] = test system: monocyte-platelet interactions; assay: Monocyte-platelet interactions in flow (receptor-ligand studies); conditions: wall shear stress 0.5 dyne/cm2; relative to P+RGD+ maximum
Protocol: Platelet-coated Vena8 channels were pre-treated with either 40 μg/ml anti-P-selectin (R&D Systems) or 40 μg/ml of an isotype control for 30 minutes at room temperature, then washed with 5× the volume RPMI. Mononuclear cell suspensions were pre-treated with either RGD or DGR peptides at a concentration of 2.5 mM. Video samples lasting 400 frames (26.3 seconds) were recorded 60 seconds after commencement of flow using a lower power field of view spanning 400 microns and centered at 7500 microns from the flow start point.

[9] = 100 ng/mL 8-MOP and 1 J/cm^2 UVA, 24 hr
[10] = 24 hr after LPS stimulation, multiplex immunoassay

**Q.** For HHLGGAKQAGDV, which “platelet adhesion to fibrinogen-coated plates” value (platelets [1]) is on record?
**A.** The value was “significantly decreased”.

**Q.** And the “platelet adhesion to fibronectin-coated plates” value (platelets [2])?
**A.** Its value is “had no effect”.

**Q.** For thrombin, which “monocyte differentiation (cells expressing DC markers)” value (monocytes) is on record?
**A.** The value was “did not cause a discernible difference”.

**Q.** Which results are given for `COc1c2occc2cc2ccc(=O)oc12` [8-MOP, 8-methoxypsoralen]?
**A.** 8-MOP concentration needed for an effect on GILZ expression (GILZ [3]; 0.5 J/cm^2 UVA): 200 ng/mL; time GILZ remained significantly elevated (GILZ [3]; 8-MOP and UVA light (FIG. 10F)): 72 h; GILZ expression increase, combination of 8-MOP and UVA light (GILZ [3]; 24 hr, relative to untreated MoDC (FIG. 10E)): 5.5 fold; GILZ expression, 8-MOP alone (GILZ [3]; without UVA light, 24 hr (FIG. 10E)): did not effect GILZ expression; percentage of late apoptotic CD11c+ cells (CD11c+ MoDC; 1 J/cm^2, all doses of 8-MOP tested): less than 13%; percentage of late apoptotic CD11c+ cells (CD11c+ MoDC; 2 J/cm^2, all doses of 8-MOP tested): less than 16%; percentage of early apoptotic CD11c+ cells compared to untreated MoDC (CD11c+ MoDC; 2 J/cm^2 and 200 ng/mL): increase; percentage of early apoptotic lymphocytes (lymphocytes [4]; [9]): 44.3%; percentage of late apoptotic lymphocytes (lymphocytes [4]; [9]): 33.7%; time after treatment at which lymphocytes display Annexin-V (lymphocytes [4]; 1 J/cm^2 and 100 ng/mL): 2 h; ECP-processed lymphocytes apoptotic (lymphocytes [5]): 99%

**Q.** Which “platelet adhesion to coated plates in flow” value (platelets [6]) does the source give for fibrinogen here?
**A.** The value was “highest concentrations of platelets adhered”.

**Q.** For `C[C@@H]1C[C@H]2[C@@H]3CCC4=CC(=O)C=C[C@]4(C)[C@@]3(F)[C@@H](O)C[C@]2(C)[C@@]1(O)C(=O)CO` [dexamethasone], which “time after treatment at which GILZ is up-regulated” value (GILZ [3]; 100 nM dex) is on record?
**A.** The value was 2 h.

**Q.** What about the “GILZ up-regulation, fold change relative to untreated MoDC cultured alone” value (GILZ [3]) of the same molecule?
**A.** Its value is 4.29 fold.

**Q.** What about the “IL-10 to IL-12p70 ratio” value (MoDC) of the same molecule?
**A.** The value was 67.7.

**Q.** What about the “IL-10 to IL-12p70 ratio, non-transfected MoDC” value (GILZ [7]) of the same molecule?
**A.** Its value is 15.3.

**Q.** What about the “IL-10 to IL-12p70 ratio, transfected with GILZ siRNA” value (GILZ [7]) of the same molecule?
**A.** The value was 3.9.

**Q.** For “Arg-Gly-Asp-Ser (RGDS; printed: Arg-Gly-Asp-Ser) [RGD peptides]”, which “platelet adhesion to fibrinogen-coated plates” value (platelets [1]) is on record?
**A.** Its value is “not significantly altered”.

**Q.** And the “platelet adhesion to fibronectin-coated plates” value (platelets [2])?
**A.** The value was “decreased adhesion significantly”.

**Q.** What about the “short-duration monocyte-platelet interactions (less than 3 seconds)” value [8] of the same molecule?
**A.** Its value is “did not significantly alter”.

**Q.** With 8-methoxypsoralen [8-MOP] as the molecule, how does the “GILZ up-regulation, fold change relative to untreated MoDC cultured alone” value (GILZ [3]) read?
**A.** Its value is 2.78 fold.

**Q.** What about the “production of IL-10” value (MoDC; [10]) of the same molecule?
**A.** Its value is “increased production of IL-10”.

**Q.** What about the “production of pro-inflammatory cytokines and chemokines” value (MoDC; [10]) of the same molecule?
**A.** Its value is “decreased production of all pro-inflammatory cytokines and chemokines tested, except TNF-α and IFN-γ”.

**Q.** What about the “IL-10 to IL-12p70 ratio” value (MoDC) of the same molecule?
**A.** Its value is 38.7.

**Q.** What about the “IL-10 to IL-12p70 ratio, non-transfected MoDC” value (GILZ [7]) of the same molecule?
**A.** Its value is 8.4.

**Q.** What about the “IL-10 to IL-12p70 ratio, transfected with GILZ siRNA” value (GILZ [7]) of the same molecule?
**A.** Its value is 2.9.
